Test results published in patent US6887992B2, “3-cephem derivative crystal” (Otsuka Kagaku Kabushiki Kaisha, priority 1999, dated 2005).

Assay: Stability Test: storage, factor of decomposition determined by HPLC
Type: physicochemical
Method: Used were 100 g of clathrate crystals comprising 3-formylcephem compound (1) and dimethylformamide prepared in Example 1 and 100 g of 3-formylcephem compound (1) prepared in Reference Example 1 (amorphous product). They were stored in a thermostatic chamber at 20 to 25° C. and in a refrigerator at 3 to 5° C. for a specified time to determine a factor of decomposition by high performance liquid chromatorgraphy (HPLC). It is clear from the table that the cephalosporin crystals of the invention scarcely causes decomposition and are excellent in stability.

[1] = stored in refrigerator at 3 to 5° C. for 48 days
[2] = stored in thermostatic chamber at 20 to 25° C. for 14 days

Decomposition rate (%) [1] [%]	Decomposition rate (%) [2] [%]	SMILES
13	59	COc1ccc(COC(=O)C2=C(C=O)CSC3C(NC(=O)Cc4ccccc4)C(=O)N23)cc1 (stereo not shown) [amorphous product, p-methoxybenzyl ester of 7-phenylacetamide-3-formyl-3-cephem-4-carboxylic acid]
0	2	COc1ccc(COC(=O)C2=C(C=O)CSC3C(NC(=O)Cc4ccccc4)C(=O)N23)cc1 (stereo not shown) [crystal, p-methoxybenzyl ester of 7-phenylacetamide-3-formyl-3-cephem-4-carboxylic acid]
